Experimental data as given in patent publication US8748415B2 (priority 2011, dated 2014).

System: recombinant NL4-3 virus (Renilla luciferase in nef, Gag P373S)
Test: HIV cell culture assay (luciferase activity in MT-2 cells infected with NLRluc recombinant virus)
Type: cell-based
Settings: NL43, MT-2 cells infected 4-5 days with NLRluc recombinant virus
How it was run: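 Activity was read as luciferase output (Dual Luciferase reagents premixed with lysis solution) after 4–5 days of infection in serially diluted inhibitor. Host cells were MT-2 in 10% FBS RPMI. The reporter virus came from transfected 293T cells and was titered on MT-2.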

Row | SMILES | EC50 (class symbol) | EC50 (numeric value)
1 | C=C(C)[C@@H]1CC[C@]2(CNCCC(=O)N3CCSCC3)CC[C@]3(C)[C@H](CC[C@@H]4[C@@]5(C)CC=C(c6ccc(C(=O)O)cc6)C(C)(C)[C@@H]5CC[C@]43C)[C@@H]12 [Example 122, 4-((1R,3aS,5aR,5bR,7aR,11aS,11bR,13aR,13bR)-5a,5b,8,8,11a-pentamethyl-3a-((3-oxo-3-thiomorpholinopropylamino)methyl)-1-(prop-1-en-2-yl)-2,3,3a,4,5,5a,5b,6,7,7a,8,11,11a,11b,12,13,13a,13b-octadecahydro-1H-cyclopenta[a]chrysen-9-yl)benzoic acid] | < 100 nM | 
2 | C=C(C)[C@@H]1CC[C@]2(CNCCC(=O)N3CCC4(CCN(C)C4=O)CC3)CC[C@]3(C)[C@H](CC[C@@H]4[C@@]5(C)CC=C(c6ccc(C(=O)O)cc6)C(C)(C)[C@@H]5CC[C@]43C)[C@@H]12 [Example 123, 4-((1R,3aS,5aR,5bR,7aR,11aS,11bR,13aR,13bR)-5a,5b,8,8,11a-pentamethyl-3a-((3-(2-methyl-1-oxo-2,8-diazaspiro[4.5]decan-8-yl)-3-oxopropylamino)methyl)-1-(prop-1-en-2-yl)-2,3,3a,4,5,5a,5b,6,7,7a,8,11,11a,11b,12,13,13a,13b-octadecahydro-1H-cyclopenta[a]chrysen-9-yl)benzoic acid] | < 100 nM | 
3 | C=C(C)[C@@H]1CC[C@]2(CNCCC(=O)N3CCN(CCS(C)(=O)=O)CC3)CC[C@]3(C)[C@H](CC[C@@H]4[C@@]5(C)CC=C(c6ccc(C(=O)O)cc6)C(C)(C)[C@@H]5CC[C@]43C)[C@@H]12 [Example 124, 4-((1R,3aS,5aR,5bR,7aR,11aS,11bR,13aR,13bR)-5a,5b,8,8,11a-pentamethyl-3a-((3-(4-(2-(methylsulfonyl)ethyl)piperazin-1-yl)-3-oxopropylamino)methyl)-1-(prop-1-en-2-yl)-2,3,3a,4,5,5a,5b,6,7,7a,8,11,11a,11b,12,13,13a,13b-octadecahydro-1H-cyclopenta[a]chrysen-9-yl)benzoic acid] | < 100 nM | 
4 | C=C(C)[C@@H]1CC[C@]2(CNCCC(=O)N(C)CCS(C)(=O)=O)CC[C@]3(C)[C@H](CC[C@@H]4[C@@]5(C)CC=C(c6ccc(C(=O)O)cc6)C(C)(C)[C@@H]5CC[C@]43C)[C@@H]12 [Example 125, 4-((1R,3aS,5aR,5bR,7aR,11aS,11bR,13aR,13bR)-5a,5b,8,8,11a-pentamethyl-3a-((3-(methyl(2-(methylsulfonyl)ethyl)amino)-3-oxopropylamino)methyl)-1-(prop-1-en-2-yl)-2,3,3a,4,5,5a,5b,6,7,7a,8,11,11a,11b,12,13,13a,13b-octadecahydro-1H-cyclopenta[a]chrysen-9-yl)benzoic acid] | < 100 nM | 
5 | C=C(C)[C@@H]1CC[C@]2(CNCCC(=O)N3CCC4(CC3)OCCO4)CC[C@]3(C)[C@H](CC[C@@H]4[C@@]5(C)CC=C(c6ccc(C(=O)O)cc6)C(C)(C)[C@@H]5CC[C@]43C)[C@@H]12 [Example 126] |  | 1 nM
6 | C=C(C)[C@@H]1CC[C@]2(CNCCC(=O)NC)CC[C@]3(C)[C@H](CC[C@@H]4[C@@]5(C)CC=C(c6ccc(C(=O)O)cc6)C(C)(C)[C@@H]5CC[C@]43C)[C@@H]12 [Example 127, 4-((1R,3aS,5aR,5bR,7aR,11aS,11bR,13aR,13bR)-5a,5b,8,8,11a-pentamethyl-3a-((3-(methylamino)-3-oxopropylamino)methyl)-1-(prop-1-en-2-yl)-2,3,3a,4,5,5a,5b,6,7,7a,8,11,11a,11b,12,13,13a,13b-octadecahydro-1H-cyclopenta[a]chrysen-9-yl)benzoic acid] | < 100 nM | 
7 | C=C(C)[C@@H]1CC[C@]2(CNCCC(=O)N3CCC(=O)CC3)CC[C@]3(C)[C@H](CC[C@@H]4[C@@]5(C)CC=C(c6ccc(C(=O)O)cc6)C(C)(C)[C@@H]5CC[C@]43C)[C@@H]12 [Example 128, 4-((1R,3aS,5aR,5bR,7aR,11aS,11bR,13aR,13bR)-5a,5b,8,8,11a-pentamethyl-3a-((3-oxo-3-(4-oxopiperidin-1-yl)propylamino)methyl)-1-(prop-1-en-2-yl)-2,3,3a,4,5,5a,5b,6,7,7a,8,11,11a,11b,12,13,13a,13b-octadecahydro-1H-cyclopenta[a]chrysen-9-yl)benzoic acid] | < 100 nM | 
8 | C=C(C)[C@@H]1CC[C@]2(CNCCC(=O)NC(C)(CO)CO)CC[C@]3(C)[C@H](CC[C@@H]4[C@@]5(C)CC=C(c6ccc(C(=O)O)cc6)C(C)(C)[C@@H]5CC[C@]43C)[C@@H]12 [Example 129, 4-((1R,3aS,5aR,5bR,7aR,11aS,11bR,13aR,13bR)-3a-((3-(1,3-dihydroxy-2-methylpropan-2-ylamino)-3-oxopropylamino)methyl)-5a,5b,8,8,11a-pentamethyl-1-(prop-1-en-2-yl)-2,3,3a,4,5,5a,5b,6,7,7a,8,11,11a,11b,12,13,13a,13b-octadecahydro-1H-cyclopenta[a]chrysen-9-yl)benzoic acid] | < 100 nM | 
9 | C=C(C)[C@@H]1CC[C@]2(CNCC(=O)N3CCCCC3)CC[C@]3(C)[C@H](CC[C@@H]4[C@@]5(C)CC=C(c6ccc(C(=O)O)cc6)C(C)(C)[C@@H]5CC[C@]43C)[C@@H]12 [Example 130, 4-((1R,3aS,5aR,5bR,7aR,11aS,11bR,13aR,13bR)-5a,5b,8,8,11a-pentamethyl-3a-((2-oxo-2-(piperidin-1-yl)ethylamino)methyl)-1-(prop-1-en-2-yl)-2,3,3a,4,5,5a,5b,6,7,7a,8,11,11a,11b,12,13,13a,13b-octadecahydro-1H-cyclopenta[a]chrysen-9-yl)benzoic acid] | < 100 nM | 
10 | C=C(C)[C@@H]1CC[C@]2(CNC(CC(=O)O)C(=O)N3CCC(F)(F)C3)CC[C@]3(C)[C@H](CC[C@@H]4[C@@]5(C)CC=C(c6ccc(C(=O)O)cc6)C(C)(C)[C@@H]5CC[C@]43C)[C@@H]12 (stereo partly drawn) [Example 131, 4-((1R,3aS,5aR,5bR,7aR,11aS,11bR,13aR,13bR)-3a-((3-carboxy-1-(3,3-difluoropyrrolidin-1-yl)-1-oxopropan-2-ylamino)methyl)-5a,5b,8,8,11a-pentamethyl-1-(prop-1-en-2-yl)-2,3,3a,4,5,5a,5b,6,7,7a,8,11,11a,11b,12,13,13a,13b-octadecahydro-1H-cyclopenta[a]chrysen-9-yl)benzoic acid] | < 100 nM | 
11 | C=C(C)[C@@H]1CC[C@]2(CN[C@@H](CC(=O)O)C(=O)N3CCS(=O)(=O)CC3)CC[C@]3(C)[C@H](CC[C@@H]4[C@@]5(C)CC=C(c6ccc(C(=O)O)cc6)C(C)(C)[C@@H]5CC[C@]43C)[C@@H]12 [Example 132, 4-thiomorpholinebutanoic acid, 4-((1R,3aS,5aR,5bR,7aR,11aS,11bR,13aR,13bR)-3a-((((1S)-1-(carboxymethyl)-2-(1,1-dioxido-4-thiomorpholinyl)-2-oxoethyl)amino)methyl)-1-isopropenyl-5a,5b,8,8,11a-pentamethyl-2,3,3a,4,5,5a,5b,6,7,7a,8,11,11a,11b,12,13,13a,13b-octadecahydro-1H-cyclopenta[a]chrysen-9-yl)benzoic acid] | < 100 nM | 
12 | C=C(C)[C@@H]1CC[C@]2(CNC(=O)CN3CCCC3=O)CC[C@]3(C)[C@H](CC[C@@H]4[C@@]5(C)CC=C(c6ccc(C(=O)O)cc6)C(C)(C)[C@@H]5CC[C@]43C)[C@@H]12 [Example 133, 4-((1R,3aS,5aR,5bR,7aR,11aS,11bR,13aR,13bR)-5a, 5b,8,8,11a-pentamethyl-3a-((2-(2-oxopyrrolidin-1-yl)acetamido)methyl)-1-(prop-1-en-2-yl)-2,3,3a,4,5,5a,5b,6,7,7a,8,11,11a,11b,12,13,13a,13b-octadecahydro-1H-cyclopenta[a]chrysen-9-yl)benzoic acid] | < 100 nM | 
13 | C=C(C)[C@@H]1CC[C@]2(CNC(=O)C3CC(=O)NC(=O)C3)CC[C@]3(C)[C@H](CC[C@@H]4[C@@]5(C)CC=C(c6ccc(C(=O)O)cc6)C(C)(C)[C@@H]5CC[C@]43C)[C@@H]12 [Example 134, 4-((1R,3aS,5aR,5bR,7aR,11aS,11bR,13aR,13bR)-3a-((2,6-dioxopiperidine-4-carboxamido)methyl)-5a,5b,8,8,11a-pentamethyl-1-(prop-1-en-2-yl)-2,3,3a,4,5,5a,5b,6,7,7a,8,11,11a,11b,12,13,13a,13b-octadecahydro-1H-cyclopenta[a]chrysen-9-yl)benzoic acid] | < 100 nM | 
14 | C=C(C)[C@@H]1CC[C@]2(CNC(=O)[C@H](N)CCS(C)(=O)=O)CC[C@]3(C)[C@H](CC[C@@H]4[C@@]5(C)CC=C(c6ccc(C(=O)O)cc6)C(C)(C)[C@@H]5CC[C@]43C)[C@@H]12 [Example 135, 4-((1R,3aS,5aR,5bR,7aR,11aS,11bR,13aR,13bR)-3a-(((R)-2-amino-4-(methylsulfonyl)butanamido)methyl)-5a,5b,8,8,11a-pentamethyl-1-(prop-1-en-2-yl)-2,3,3a,4,5,5a,5b,6,7,7a,8,11,11a,11b,12,13,13a,13b-octadecahydro-1H-cyclopenta[a]chrysen-9-yl)benzoic acid] | < 100 nM | 
15 | C=C(C)[C@@H]1CC[C@]2(CNC(=O)[C@@H]3CCCN3)CC[C@]3(C)[C@H](CC[C@@H]4[C@@]5(C)CC=C(c6ccc(C(=O)O)cc6)C(C)(C)[C@@H]5CC[C@]43C)[C@@H]12 [Example 136, 4-((1R,3aS,5aR,5bR,7aR,11aS,11bR,13aR,13bR)-5a,5b,8,8,11a-pentamethyl-1-(prop-1-en-2-yl)-3a-(((S)-pyrrolidine-2-carboxamido)methyl)-2,3,3a,4,5,5a,5b,6,7,7a,8,11,11a,11b,12,13,13a,13b-octadecahydro-1H-cyclopenta[a]chrysen-9-yl)benzoic acid] | < 100 nM | 
